According to patent US20110065760A1, “COMPOUNDS FOR THE INHIBITION OF ROTAMASES AND USE THEREOF” (Jerini AG, priority 2002, published 2011):

Key:
[1] = WST-1 cytotoxicity assay, PC-3; assay type: cell-based; conditions: human, PC-3 cells (prostate carcinoma); WST-1, 48 h incubation; read-out: EC50 class, cytotoxic effect, CL-3 (PC-3)
Method: (§1) For this cytotoxic evaluation of the compounds the commercial available WST-1 assay (Roche) was used according to the manufacturer's instructions. The assay is based on the cleavage of the tetrazolium salt WST-1 by mitochondrial dehydrogenases found in viable cells. In general compounds were added to cells cultured in 96-well plates at 37° C. After 48 h of incubation 10 μl of WST-1 solution was added. The formazan dye was analyzed with an ELISA plate reader at (450 vs. 620) nm. CL-1: human acute myeloid leukemia, HL-60 CL-2: human cervix carcinoma, HeLa CL-3: human prostate carcinoma, PC-3 CL-4: human colon adenocarcinoma, Caco-2 CL-5: human breast adenocarcinoma, MCF-7

hCyp18 = hCyp18 (Homo sapiens, UniProt P62937); experiment: protease-coupled PPIase assay, hCyp18; assay type: biochemical; conditions: 10 nM hCyp18, substrate Suc-Ala-Phe-Pro-Phe-pNA, chymotrypsin, pH 7.8, 6° C.; read-out: IC50 class, Target T-3 (hCyp18)
Chain of hCyp18 (P62937 whole entry): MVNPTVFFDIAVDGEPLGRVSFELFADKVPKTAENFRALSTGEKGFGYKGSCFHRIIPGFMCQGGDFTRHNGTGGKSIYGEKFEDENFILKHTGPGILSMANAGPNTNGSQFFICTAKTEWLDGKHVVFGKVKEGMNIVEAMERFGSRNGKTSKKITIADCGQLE

[2] = tested on: tumor cell lines (HL-60, HeLa, PC-3, Caco-2, MCF-7); experiment: WST-1 cytotoxicity assay, tumor cell lines (panel statement); assay type: cell-based, human; conditions: WST-1, 48 h; table 4
Method: as §1

hPin1 = hPin1 (Homo sapiens, UniProt Q13526); experiment: protease-coupled PPIase assay, hPin1; assay type: biochemical; conditions: 6 nM hPin1, substrate Ac-Ala-Ala-Ser(PO3H2)-Pro-Arg-pNA, trypsin, pH 7.8, 6° C.; read-out: IC50 class, Target T-1 (hPin1)
Chain of hPin1 (Q13526 whole entry): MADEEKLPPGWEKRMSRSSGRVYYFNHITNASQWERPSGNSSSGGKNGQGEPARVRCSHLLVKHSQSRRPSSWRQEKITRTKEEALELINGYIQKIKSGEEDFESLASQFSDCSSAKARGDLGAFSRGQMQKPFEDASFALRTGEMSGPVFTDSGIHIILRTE

[3] = WST-1 cytotoxicity assay, MCF-7; assay type: cell-based; conditions: human, MCF-7 cells (breast adenocarcinoma); WST-1, 48 h incubation; read-out: EC50 class, cytotoxic effect, CL-5 (MCF-7)
Method: as §1

HL-60 cells = experiment: FACS measurements and TUNEL assay (Apo-Direct kit); assay type: cell-based, human; conditions: FIG. 2
Description: Enari M. Sakahira H. Yokoyama H. Okawa K. Iwamatsu A. Nagata S. A caspase-activated DNase that degrades DNA during apoptosis, and its inhibitor ICAD [erratum appears in Nature 1998 May 28; 393(6683):396.]. Nature. 391:43-50, 1998 • Darzynkiewicz Z. Juan G. Li X. Gorczyca W. Murakami T. Traganos F. Cytometry in cell necrobiology: analysis of apoptosis and accidental cell death (necrosis). Cytometry. 27:1-20, 1997
Apoptotic HL-60 cells were detected by FACS analysis of FITC-dUTP-labelled DNA breaks using the Apo-Direct kit (BD-Pharmingen) according to the manufacturer's protocol.

Hela cells = experiment: DAPI staining; assay type: cell-based, human; conditions: FIG. 3
Method: Hela cells grown on poly-L-Lys-coated coverslips were fixed with 2% paraformaldehyde/MeOH.
Cellular DNA was stained with DAPI staining buffer (100 mM Tris (pH 7.4), 150 mM NaCl, 1 mM CaCl2, 0.5 mM MgCl2, 0.1% nonidet P-40, 1 μg/ml DAPI (Molecular Probes)). All the steps were performed at room temperature, and cells were washed two times with PBS after each step. Finally, cells were mounted in 80% glycerol/PBS.

What does the source list for `Cc1c(Cl)cc(NC(=O)NC(C)(C)CC(C)(C)C)c(O)c1Cl` [Compound 102]?
EC50 at 48 h [1]: < 10 µM; IC50 (hCyp18): 10 to 50 µM; cytotoxic effect on the tumor cell lines tested [2]: particular relevance; IC50 (hPin1): 1 to 10 µM; EC50 at 48 h [3]: < 10 µM; induction of apoptosis (FACS analysis of FITC-dUTP-labelled DNA breaks) (HL-60 cells): induce apoptosis; induction of apoptosis (DAPI staining, fluorescence microscopy) (Hela cells): induce apoptosis
